No end group written: not given here.
Assays:
[1] = test system: PGN-, Pam3CSK4- and CPS-activated RAW 264.7 macrophages; assay: NO generation induced by other bacterial components in RAW 264.7 (Griess reaction); assay type: cell-based, mouse; conditions: 24 h, Fig 1B
Method: (§1) RAW 264.7 cells (2 × 10^5 in 0.5 ml of medium) were seeded in 24-well plates and then incubated with or without LPS (0.1 μg/ml) in the absence or presence of AMP for 24 h. The effects of AMP on NO production were measured indirectly by analyzing nitrite levels using the Griess reaction as described in detail previously.
Fig 1 Effects of GW-A2 on the expression levels of inflammatory mediators. (A) RAW 264.7 macrophages were incubated for 30 min with or without GW-A2 or scrambled GW-A2, followed by incubation with or without 0.1 μg/ml of E. coli LPS or Salmonella LPS for 24 h. The levels of NO in the culture medium were measured by the Griess reaction. (B) RAW 264.7 macrophages were incubated for 30 min with or without GW-A2, followed by incubation with or without peptidoglycan (20 μg/ml), Pam3CSK4 (0.2 μg/ml) or capsular polysaccharide (3 μg/ml) for 24 h. The levels of NO in the culture medium were measured by the Griess reaction. (C) RAW 264.7 macrophages were incubated for 30 min with or without GW-A2, followed by incubation with or without 0.1 μg/ml of E. coli LPS for 24 h. The levels of iNOS and COX-2 were assessed by Western blotting and the histograms represent the expression levels compared to the LPS alone group obtained in three different experiments. (D) RAW 264.7 macrophages were incubated for 30 min with or without GW-A2, followed by incubation with or without 0.1 μg/ml of E. coli LPS for 6 h. The mRNA levels of iNOS and COX-2 were assessed by quantitative real-time PCR. (E and F) RAW 264.7 macrophages (E) and human THP-1 macrophages (F) were incubated for 30 min with or without GW-A2, followed by incubation with or without 0.1 μg/ml of E. coli LPS for 24 h. The levels of TNF-α and IL-6 were assayed by ELISA. […] The cell proliferation was measured by AlamarBlue® assay. The data are expressed as the mean ± SD of three independent experiments. *, ** and *** indicate significant differences, representing p < 0.05, p < 0.01 and p < 0.001, respectively compared to stimulation alone. # indicates significant differences, representing p < 0.05 compared to 2 μM of GW-A2 group.

[2] = test system: LPS-induced NO generation in RAW264.7 cells; assay: NO inhibitory assay (Griess reaction), LPS-activated RAW 264.7; assay type: cell-based, mouse
Method: as §1

[3] = test system: cell surface of paraformaldehyde-fixed RAW 264.7 cells; assay: Flow cytometry, binding to the cell surface; assay type: cell-based, mouse; conditions: fixed RAW 264.7, GW-A2 30 min then 2 μg/ml LPS-FITC 30 min, 4°C; Fig 6A
Method: For binding of GW-A2 to the cell surface, RAW 264.7 cells were fixed for 15 min with 2% paraformaldehyde and then incubated for 30 min with 20 μM of GW-A2-FITC at 4°C. After washing, cells were subjected to flow cytometric analysis on a FACSCalibur using CellQuest Software (Becton Dickinson Inc., San Jose, CA, USA). To assess binding of LPS to the cell surface, RAW 264.7 cells were fixed for 15 min with 2% paraformaldehyde and then incubated for 30 min with GW-A2. This was followed by incubation for 30 min with 2 μg/ml of LPS-FITC (F3665, Sigma) at 4°C. After washing, the cells were subjected to flow cytometric analysis.

[4] = test system: NLRP3 inflammasome in J774A.1 macrophages; assay: NLRP3 inflammasome activation (IL-1β ELISA, caspase-1 Western blot); assay type: cell-based
Method: The expression levels of IL-1β, IL-6 and TNF-α in the conditional medium, sera and lavage fluids were measured by ELISA as described in detail previously.
The protein expression levels of iNOS, COX-2, ERK1/2, JNK1/2, p38, IκB-α, PKC, caspase-1 and the phosphorylation levels of ERK1/2, JNK1/2, p38, PKC-α, PKC-δ, IκB-α were determined by Western blotting as described in detail previously.
Fig 4 Effects of GW-A2 on NLRP3 inflammasome activation. (A and B) J774A.1 macrophages were incubated for 30 min with or without 2 μM of GW-A2, for 5.5 h with or without 0.1 μg/ml of E. coli LPS, and then for 30 min with or without 5 mM of ATP (A) or 10 μM of nigericin (B). The levels of IL-1β in the culture medium and activated caspase-1 (p10) in the cells were measured by ELISA and Western blotting, respectively. (C—F) J774A.1 macrophages were incubated for 5.5 h with 0.1 μg/ml of E. coli LPS, for 30 min with or without 2 μM of GW-A2, and then for 30 min with or without 5 mM of ATP (C and E), 10 μM of nigericin (D) or 100 μg/ml of MSU (F). The levels of IL-1β and TNF-α in the culture medium and activated caspase-1 (p10) in the cells were measured by ELISA and Western blotting, respectively. The data are expressed as the mean ± SD of three independent experiments. The Western blotting results shown are a representative experiment of three independent experiments. *, ** and *** indicate significant differences, representing p < 0.05, p < 0.01 and p < 0.001, respectively compared to stimulation alone.

Sequence: GAKYAKIIYNYLKKIANALW [GW-A2]
- NO inhibitory activity in Pam3CSK4-activated macrophages ([1]; Pam3CSK4 0.2 μg/ml): much lower than that in LPS-activated macrophages
- NO inhibitory activity in CPS-activated macrophages ([1]; capsular polysaccharide 3 μg/ml): much lower than that in LPS-activated macrophages
- NO inhibitory activity in PGN-activated macrophages ([1]; peptidoglycan 20 μg/ml): much lower than that in LPS-activated macrophages
- NO generation, GW-A2 added 0–8 h post LPS stimulation (therapeutic) ([2]; 2 μM GW-A2, Fig 3B): significantly inhibited
- NO generation, GW-A2 added 16 h after LPS stimulation ([2]; 2 μM GW-A2, Fig 3B): no effect
- NO generation induced by E. coli-LPS ([2]; RAW 264.7, 30 min peptide then 0.1 μg/ml E. coli LPS 24 h, Griess, Fig 1A): inhibited by GW-A2 in a dose-dependent manner
- NO generation induced by Salmonella-LPS ([2]; RAW 264.7, 30 min peptide then 0.1 μg/ml Salmonella LPS 24 h, Griess, Fig 1A): inhibited by GW-A2 in a dose-dependent manner
- LPS-induced NO generation, GW-A2 added with LPS or 24 h before LPS (prophylactic) ([2]; pre-incubation 0–24 h, then LPS 24 h, Fig 3A): significantly reduce
- LPS-induced NO generation, GW-A2 washed off before LPS stimulation ([2]; pre-incubation 1, 3, 6, 12 or 24 h, supernatant replaced, LPS 24 h, Fig 3C): not able to inhibit
- Competition with LPS-FITC for cell surface binding [3]: did not compete
- LPS-FITC binding to the cell surface in presence of GW-A2 [3]: increase in LPS-FITC binding to the cell surface
- IL-1β secretion and caspase-1 activation induced by LPS+nigericin ([4]; 2 μM GW-A2 30 min before LPS 5.5 h, then 10 μM nigericin 30 min, Fig 4B): significantly inhibited
- IL-1β secretion and caspase-1 activation induced by LPS+ATP ([4]; 2 μM GW-A2 30 min before LPS 5.5 h, then 5 mM ATP 30 min, Fig 4A): significantly inhibited
- Nigericin-induced IL-1β secretion and caspase-1 activation in LPS-primed macrophages ([4]; LPS 5.5 h, then 2 μM GW-A2 30 min, then 10 μM nigericin, Fig 4D): no significant effect
- MSU-induced IL-1β secretion in LPS-primed macrophages ([4]; LPS 5.5 h, then 2 μM GW-A2 30 min, then 100 μg/ml MSU, Fig 4F): not able to inhibit
- ATP-induced IL-1β secretion and caspase-1 activation in LPS-primed macrophages ([4]; LPS 5.5 h, then 2 μM GW-A2 30 min, then 5 mM ATP, Fig 4C): inhibited
- TNF-α secretion in LPS-primed macrophages ([4]; LPS 5.5 h, then 2 μM GW-A2 30 min, then 5 mM ATP, Fig 4E): did not decrease

— paper PMC5531531, “A synthetic cationic antimicrobial peptide inhibits inflammatory response and the NLRP3 inflammasome by neutralizing LPS and ATP” (PLoS ONE, 2017)
